{"source": "patent US8435569B2", "about": "“Pharmaceutical composition comprising at least one thrombolytic agent (A) and at least one gas (B) selected from the group consisting of nitrous oxide, argon, xenon, helium, neon” (NNOXE Pharmaceutiques Inc., priority 2007, dated 2013)", "key": {"[1]": {"target": "human recombinant t-PA (Homo sapiens, UniProt P00750)", "sequence (P00750 36-562)": "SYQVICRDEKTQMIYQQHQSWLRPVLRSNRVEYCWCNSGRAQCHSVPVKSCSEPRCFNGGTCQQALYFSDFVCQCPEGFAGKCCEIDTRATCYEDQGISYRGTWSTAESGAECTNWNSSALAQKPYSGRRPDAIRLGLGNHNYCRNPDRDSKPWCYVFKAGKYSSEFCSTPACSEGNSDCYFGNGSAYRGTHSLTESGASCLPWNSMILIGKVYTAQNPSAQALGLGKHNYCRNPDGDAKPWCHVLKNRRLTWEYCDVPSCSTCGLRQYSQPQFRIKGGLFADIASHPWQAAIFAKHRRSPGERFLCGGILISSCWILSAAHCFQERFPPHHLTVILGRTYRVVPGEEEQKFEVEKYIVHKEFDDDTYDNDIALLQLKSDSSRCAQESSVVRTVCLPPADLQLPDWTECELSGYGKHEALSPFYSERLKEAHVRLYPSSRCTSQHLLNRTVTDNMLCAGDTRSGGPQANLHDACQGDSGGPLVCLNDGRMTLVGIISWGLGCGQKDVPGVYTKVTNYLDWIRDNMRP", "assay": "Catalytic activity of t-PA (initial rate method, spectrophotometer)", "assay_type": "biochemical", "experimental": "All experiments were performed as follows: Fifty (50) μL of human recombinant t-PA was incubated with 50 μL of its substrate: methylsulfonyl-D-phenyl-glycil-arginine-7-amino-4-methylcoumarin acetate. For plasmin, twenty five (25) μL of human recombinant plasmin was incubated with 25 μL of its substrate: H-D-norleucyl-hexahydrotyrosol-lysine-para-nitroanilide diacetate. The kinetics of the catalytic activity of t-PA or plasmin was immediately measured using a spectrophotometer, and then estimated using the initial rate method. Solutions of t-PA or plasmin and their substrates were saturated with air (control), or with nitrous oxide, argon, xenon, or helium at concentrations of 15 vol % to 75 vol %, the remainder being oxygen at 25 vol %, completed with nitrogen when necessary.\nFor all gas mixtures in FIG. 1, the remainder is 25 vol % oxygen completed with nitrogen if necessary.\n(§1) The effects of oxygen on the catalytic activity and thrombolytic properties of t-PA were also evaluated in vitro and in vivo according to the methods described above."}, "[2]": {"test_system": "middle cerebral artery occlusion using an autologous blood clot", "assay": "In vivo thrombolysis/reperfusion after embolic middle cerebral artery occlusion using an autologous blood clot", "parameters": "species or system rat", "experimental": "In vivo experiments (FIG. 3) were performed in Male adult Sprague-Dawley rats (290±40 g). The animals had free access to food and water in an animal room at constant temperature and humidity. Rats monitored for their physiological functions were anesthesized, and subjected to cerebral ischemia by occlusion of the middle cerebral artery using an autologus blood clot obtained from whole blood withdrawn from the rat 24 h prior surgery, allowed to clot at 37° C. for 2 h, and then and stored at 4° C. for 22 h.\nEmbolic occlusion of the middle cerebral artery was induced using an autologous blood clot. Briefly, a blood clot of 4 cm long was injected with a volume of […] of saline into the middle cerebral artery. Forty-five minutes after occlusion of the middle cerebral artery, the rats were given t-PA intravenously (0.9 mg/kg; 10% bolus, 90% perfusion during 45 minutes) in order to induce thrombolysis. Five minutes before the bolus injection and all along the perfusion period with t-PA, the rats were treated with medical air (controls) or xenon. Then, the catheter was removed, and all the incisions closed. After the experiment, the rats were allowed moving freely in their home cage with free access to food and water.\nas §1"}, "[3]": {"test_system": "t-PA-induced clot lysis", "assay": "In vitro t-PA-induced clot lysis of rat blood clots", "assay_type": "biochemical", "conditions": "for effect on t-PA-induced clot lysis: t-PA 0.008 mg/mL", "experimental": "In vitro experiments (FIG. 2) were performed using Male adult Sprague-Dawley rats (500±50 g). The rats were killed by decapitation. A volume of 500 μL of rat blood was transferred in different pre-weighed sterile Eppenforf™ tubes of 1.5 mL volume and incubated at 37° C. for 15 hours.\nAfter clot formation, serum was completely removed, aspired out without disturbing the clot formed, and each tube was again weighed to determine the clot weight (clot weight=weight of tube containing clot−weight of tube alone). Each tube containing clot was properly labeled and filled with 1 mL of a saline solution containing 0.008 mg/mL of t-PA, saturated beforehand with medical air (control), nitrous oxide, xenon, argon or a mixture of nitrous oxide and argon. Some tubes were filled with saline alone saturated with medical air to serve as a negative control. All tubes were then incubated at 37° C. for 1 h 30 min. After incubation, the fluid obtained was removed and tubes were again weighed to observe the difference in weight after clot disruption. Difference obtained in weight taken before and after clot lysis was expressed as a percentage of clot lysis.\nas §1"}, "[4]": {"test_system": "NMDA-induced neuronal death", "assay": "NMDA-induced neuronal death after intracerebral injection, with or without t-PA", "assay_type": "in vivo, rat", "experimental": "Experiments were conducted in Male adult Sprague-Dawley rats. The rats were given, under short halothane-oxygen anesthesia of 10 min duration, an intracerebral injection of 50 nmol NMDA, alone or in combination with 3 mg t-PA, in […] saline solution.\nOne hour later, the rats were treated for a 3 h period in an environmental chamber saturated with nitrous oxide at 50 vol % with the remainder being oxygen at 25 vol % completed with nitrogen.\nForty-eight (48) hours after NMDA injection, rats were killed by decapitation under halothane-oxygen anesthesia. The brain was rapidly removed, frozen in isopentane, placed at −80° C. Coronal brain sections (20 μm) were then cryostat-cut, mounted on gelatinized slides, and stained with thionin. Brain sections colored with thionin were then digitized on a PC computer, and analyzed with an image analyzer (ImageJ® software, Scion corp., USA) by two blinded scientists. Values were averaged; value differences were no more than 10% (mean: 0.5±1%). The lesion areas were delineated by the pallor of histological staining in the necrotic tissue compared with the surrounding healthy tissue. The infarction volume was calculated by integration over the whole brain of the infarcted surfaces, using the sterotaxic atlas for the rat brain of Paxinos and Watson (Academic Press, 1998)."}, "[5]": {"conditions": "solutions saturated with gas at 15 vol % to 75 vol %, remainder 25 vol % oxygen completed with nitrogen, vs air control"}, "[6]": {"conditions": "gas at 50 vol %, 37° C., 1 h 30 min"}}, "data": [{"molecule": "O=O", "note": "[Oxygen, oxygen]", "values": [{"measurement": "effect on the catalytic activity of t-PA", "setting": "[1]; oxygen at 100 vol %", "result": "increases"}, {"measurement": "effect on in vivo thrombolytic action of t-PA", "setting": "[2]; oxygen at 100 vol %", "result": "facilitates"}, {"measurement": "effect on in vitro thrombolytic action of t-PA", "setting": "[3]; oxygen at 100 vol %", "result": "facilitates"}]}, {"molecule": "[Ar]", "note": "[argon]", "values": [{"measurement": "effect on the catalytic activity of t-PA", "setting": "[1]; [5]", "result": "reduced"}, {"measurement": "effect on t-PA-induced clot lysis", "setting": "[3]; gas at 30 vol %, 37° C., 1 h 30 min", "result": "reduce"}]}, {"molecule": "[He]", "note": "[helium]", "values": [{"measurement": "effect on the catalytic activity of t-PA", "setting": "[1]; [5]", "result": "reduced"}, {"measurement": "effect on t-PA-induced clot lysis", "setting": "[3]; gas at 75 vol %, 37° C., 1 h 30 min", "result": "reduce"}]}, {"molecule": "[N-]=[N+]=O", "note": "[nitrous oxide]", "values": [{"measurement": "effect on the catalytic activity of t-PA", "setting": "[1]; [5]", "result": "reduced"}, {"measurement": "effect on t-PA-induced clot lysis", "setting": "[3]; [6]", "result": "reduce"}, {"measurement": "reduction of neuronal death induced by co-administration of t-PA and NMDA", "setting": "[4]; nitrous oxide 50 vol % for 3 h, 1 h after 50 nmol NMDA + t-PA intracerebral, infarction volume at 48 h", "result": 45, "unit": "%"}, {"measurement": "reduction of neuronal death produced by NMDA", "setting": "[4]; nitrous oxide 50 vol % for 3 h, 1 h after 50 nmol NMDA intracerebral, infarction volume at 48 h", "result": 22, "unit": "%"}, {"measurement": "reduction of the proteolytic action of t-PA responsible for the enhancement of neuronal death", "setting": "[4]; nitrous oxide 50 vol %, difference 45%−22%", "result": "approximately 23%"}]}, {"molecule": "[Xe]", "note": "[xenon]", "values": [{"measurement": "effect on the catalytic activity of t-PA", "setting": "[1]; [5]", "result": "reduced"}, {"measurement": "reperfusion rate versus control rats treated with t-PA and medical air", "setting": "[2]; xenon at 75 vol % from 5 min before bolus and during t-PA perfusion (0.9 mg/kg i.v.)", "result": "lower reperfusion rate"}, {"measurement": "effect on t-PA-induced clot lysis", "setting": "[3]; [6]", "result": "reduce"}]}, {"molecule": "t-PA: human recombinant tissue-type plasminogen activator, a thrombolytic serine protease", "values": [{"measurement": "reperfusion", "setting": "[2]; t-PA 0.9 mg/kg intravenously 45 min after occlusion, vs rats not treated with t-PA", "result": "exhibit reperfusion"}, {"measurement": "percentage of clot lysis", "setting": "[3]; t-PA 0.008 mg/mL in saline saturated with medical air (control), 37° C., 1 h 30 min", "result": "around 23%"}, {"measurement": "effect on NMDA-induced neuronal death", "setting": "[4]; t-PA co-administered with 50 nmol NMDA intracerebrally", "result": "increases"}]}]}
